Columns and labels:
[1] = molecular target: Proto-oncogene tyrosine-protein kinase Src (Homo sapiens) (UniProt P12931)
[2] = tested on: Mast/stem cell growth factor receptor Kit (Homo sapiens), P10721 [A829P]
[3] = molecular target: Myosin light chain kinase (Homo sapiens) (UniProt Q32MK0)
[4] = molecular target: Dual specificity protein kinase TTK (Homo sapiens) (UniProt P33981)
[5] = molecular target: Serine/threonine-protein kinase N2 (Homo sapiens) (UniProt Q16513)
[6] = molecular target: Cyclin-dependent kinase-like 5 (Homo sapiens) (UniProt O76039)
Cyclin-dependent kinase-like 5 (Homo sapiens), sequence (O76039 whole entry, canonical isoform): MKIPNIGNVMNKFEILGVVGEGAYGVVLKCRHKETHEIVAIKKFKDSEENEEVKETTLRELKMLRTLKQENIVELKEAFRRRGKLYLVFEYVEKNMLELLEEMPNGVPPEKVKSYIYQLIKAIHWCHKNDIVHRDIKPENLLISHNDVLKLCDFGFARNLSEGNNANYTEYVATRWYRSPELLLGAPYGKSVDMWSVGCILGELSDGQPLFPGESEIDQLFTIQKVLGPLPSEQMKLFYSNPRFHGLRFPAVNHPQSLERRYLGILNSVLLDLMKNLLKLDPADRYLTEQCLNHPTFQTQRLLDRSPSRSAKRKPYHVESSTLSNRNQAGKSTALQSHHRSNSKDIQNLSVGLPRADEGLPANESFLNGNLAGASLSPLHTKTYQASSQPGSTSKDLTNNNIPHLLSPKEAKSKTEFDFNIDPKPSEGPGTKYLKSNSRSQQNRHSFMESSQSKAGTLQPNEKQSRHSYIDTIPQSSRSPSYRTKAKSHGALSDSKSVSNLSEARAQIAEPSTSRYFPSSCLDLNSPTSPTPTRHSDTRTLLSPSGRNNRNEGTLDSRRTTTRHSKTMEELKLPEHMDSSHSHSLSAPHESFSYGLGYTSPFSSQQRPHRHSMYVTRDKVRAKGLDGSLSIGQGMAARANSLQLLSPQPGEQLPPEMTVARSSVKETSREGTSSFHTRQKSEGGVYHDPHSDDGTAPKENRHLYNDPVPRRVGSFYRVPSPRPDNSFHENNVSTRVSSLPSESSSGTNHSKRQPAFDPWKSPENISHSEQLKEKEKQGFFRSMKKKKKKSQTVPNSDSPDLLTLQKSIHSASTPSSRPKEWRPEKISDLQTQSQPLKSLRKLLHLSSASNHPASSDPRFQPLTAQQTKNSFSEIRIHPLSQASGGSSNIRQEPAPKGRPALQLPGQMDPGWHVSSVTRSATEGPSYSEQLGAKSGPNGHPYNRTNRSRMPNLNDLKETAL

[7] = molecular target: Casein kinase I isoform epsilon (Homo sapiens) (UniProt P49674)
[8] = molecular target: Serine/threonine-protein kinase 33 (Homo sapiens) (UniProt Q9BYT3)
[9] = molecular target: Ephrin type-B receptor 1 (Homo sapiens) (UniProt P54762)
Ephrin type-B receptor 1 (Homo sapiens), sequence (P54762 whole entry): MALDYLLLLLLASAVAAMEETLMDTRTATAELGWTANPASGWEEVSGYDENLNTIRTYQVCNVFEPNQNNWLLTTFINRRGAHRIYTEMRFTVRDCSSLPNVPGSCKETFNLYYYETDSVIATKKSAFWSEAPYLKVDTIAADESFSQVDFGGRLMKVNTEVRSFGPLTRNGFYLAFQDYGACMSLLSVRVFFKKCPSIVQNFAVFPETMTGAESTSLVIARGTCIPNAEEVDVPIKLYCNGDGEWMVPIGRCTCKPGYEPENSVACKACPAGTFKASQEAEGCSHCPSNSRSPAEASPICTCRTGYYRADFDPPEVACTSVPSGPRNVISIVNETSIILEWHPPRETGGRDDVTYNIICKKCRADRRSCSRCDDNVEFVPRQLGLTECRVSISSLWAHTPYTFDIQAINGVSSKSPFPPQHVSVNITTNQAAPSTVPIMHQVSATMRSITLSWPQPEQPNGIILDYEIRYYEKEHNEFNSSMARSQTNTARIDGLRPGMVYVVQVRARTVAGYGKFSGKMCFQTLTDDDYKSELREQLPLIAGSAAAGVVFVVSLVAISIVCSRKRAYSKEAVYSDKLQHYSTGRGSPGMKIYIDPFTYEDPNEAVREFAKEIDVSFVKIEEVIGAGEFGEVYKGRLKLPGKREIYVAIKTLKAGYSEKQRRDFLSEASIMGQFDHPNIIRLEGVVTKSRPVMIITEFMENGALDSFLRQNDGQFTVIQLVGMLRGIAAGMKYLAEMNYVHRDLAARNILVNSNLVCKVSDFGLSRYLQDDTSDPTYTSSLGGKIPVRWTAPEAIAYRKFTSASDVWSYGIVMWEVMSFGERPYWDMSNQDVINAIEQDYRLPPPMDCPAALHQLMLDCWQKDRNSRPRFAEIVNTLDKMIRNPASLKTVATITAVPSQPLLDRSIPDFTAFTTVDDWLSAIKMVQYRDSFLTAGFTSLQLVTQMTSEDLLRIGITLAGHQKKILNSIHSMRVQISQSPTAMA

[10] = tested on: Epidermal growth factor receptor (Homo sapiens), P00533 [UNDEFINED MUTATION]
[11] = molecular target: Rho-associated protein kinase 2 (Homo sapiens) (UniProt O75116)
[12] = molecular target: Receptor tyrosine-protein kinase erbB-2 (Homo sapiens) (UniProt P04626)
[13] = molecular target: Dual specificity mitogen-activated protein kinase kinase 5 (Homo sapiens) (UniProt Q13163)
[14] = molecular target: MAP kinase-interacting serine/threonine-protein kinase 2 (Homo sapiens) (UniProt Q9HBH9)
[15] = molecular target: Wee1-like protein kinase 2 (Homo sapiens) (UniProt P0C1S8)
Wee1-like protein kinase 2 (Homo sapiens), sequence (P0C1S8 whole entry, looked up): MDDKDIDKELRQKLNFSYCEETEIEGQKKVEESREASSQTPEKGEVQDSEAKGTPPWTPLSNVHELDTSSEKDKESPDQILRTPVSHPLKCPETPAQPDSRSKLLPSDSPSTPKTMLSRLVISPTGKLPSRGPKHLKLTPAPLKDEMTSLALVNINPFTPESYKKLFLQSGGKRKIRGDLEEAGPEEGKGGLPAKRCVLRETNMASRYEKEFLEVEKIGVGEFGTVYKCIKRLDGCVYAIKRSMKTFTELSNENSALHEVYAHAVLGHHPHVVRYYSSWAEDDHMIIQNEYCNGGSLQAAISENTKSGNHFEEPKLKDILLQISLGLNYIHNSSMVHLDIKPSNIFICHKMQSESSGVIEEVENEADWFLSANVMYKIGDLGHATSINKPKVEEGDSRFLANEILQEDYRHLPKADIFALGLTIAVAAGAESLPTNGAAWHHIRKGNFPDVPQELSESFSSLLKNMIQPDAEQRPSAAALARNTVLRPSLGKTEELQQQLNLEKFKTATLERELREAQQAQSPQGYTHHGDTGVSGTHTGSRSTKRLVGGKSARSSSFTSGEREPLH

[16] = molecular target: STE20-like serine/threonine-protein kinase (Homo sapiens) (UniProt Q9H2G2)
STE20-like serine/threonine-protein kinase (Homo sapiens), sequence (Q9H2G2 whole entry, looked up): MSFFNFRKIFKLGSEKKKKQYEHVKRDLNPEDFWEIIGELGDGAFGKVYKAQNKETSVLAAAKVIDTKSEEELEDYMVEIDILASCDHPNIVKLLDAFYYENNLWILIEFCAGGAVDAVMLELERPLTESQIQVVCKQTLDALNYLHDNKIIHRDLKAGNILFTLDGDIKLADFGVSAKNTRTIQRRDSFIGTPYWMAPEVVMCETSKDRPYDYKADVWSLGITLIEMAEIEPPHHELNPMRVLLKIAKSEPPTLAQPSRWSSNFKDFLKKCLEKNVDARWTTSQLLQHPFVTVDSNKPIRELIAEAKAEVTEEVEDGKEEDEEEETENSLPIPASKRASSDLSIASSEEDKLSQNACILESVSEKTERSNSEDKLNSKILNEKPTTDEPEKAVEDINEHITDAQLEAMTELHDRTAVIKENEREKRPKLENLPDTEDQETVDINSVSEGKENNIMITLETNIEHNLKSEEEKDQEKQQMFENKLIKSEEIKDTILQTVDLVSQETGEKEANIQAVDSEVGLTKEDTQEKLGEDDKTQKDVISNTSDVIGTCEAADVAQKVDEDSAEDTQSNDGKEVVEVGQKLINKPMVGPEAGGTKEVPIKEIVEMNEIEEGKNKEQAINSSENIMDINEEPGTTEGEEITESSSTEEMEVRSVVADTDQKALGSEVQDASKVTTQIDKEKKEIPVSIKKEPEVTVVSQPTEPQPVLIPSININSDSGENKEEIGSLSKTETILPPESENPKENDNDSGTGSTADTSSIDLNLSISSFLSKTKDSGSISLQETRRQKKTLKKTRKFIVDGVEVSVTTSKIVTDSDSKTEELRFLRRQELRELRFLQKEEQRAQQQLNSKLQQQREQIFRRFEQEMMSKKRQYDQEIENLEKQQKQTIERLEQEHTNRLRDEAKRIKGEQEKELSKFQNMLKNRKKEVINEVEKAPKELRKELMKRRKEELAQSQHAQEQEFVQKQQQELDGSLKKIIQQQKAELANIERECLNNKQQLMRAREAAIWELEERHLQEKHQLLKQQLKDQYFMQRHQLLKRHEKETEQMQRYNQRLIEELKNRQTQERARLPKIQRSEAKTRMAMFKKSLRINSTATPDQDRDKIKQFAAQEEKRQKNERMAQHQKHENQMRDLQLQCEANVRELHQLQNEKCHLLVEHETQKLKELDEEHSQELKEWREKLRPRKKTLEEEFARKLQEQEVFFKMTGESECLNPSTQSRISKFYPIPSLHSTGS

[17] = molecular target: Serine/threonine-protein kinase TAO2 (Homo sapiens) (UniProt Q9UL54)
[18] = molecular target: RAC-beta serine/threonine-protein kinase (Homo sapiens) (UniProt P31751)
RAC-beta serine/threonine-protein kinase (Homo sapiens), sequence (P31751 whole entry): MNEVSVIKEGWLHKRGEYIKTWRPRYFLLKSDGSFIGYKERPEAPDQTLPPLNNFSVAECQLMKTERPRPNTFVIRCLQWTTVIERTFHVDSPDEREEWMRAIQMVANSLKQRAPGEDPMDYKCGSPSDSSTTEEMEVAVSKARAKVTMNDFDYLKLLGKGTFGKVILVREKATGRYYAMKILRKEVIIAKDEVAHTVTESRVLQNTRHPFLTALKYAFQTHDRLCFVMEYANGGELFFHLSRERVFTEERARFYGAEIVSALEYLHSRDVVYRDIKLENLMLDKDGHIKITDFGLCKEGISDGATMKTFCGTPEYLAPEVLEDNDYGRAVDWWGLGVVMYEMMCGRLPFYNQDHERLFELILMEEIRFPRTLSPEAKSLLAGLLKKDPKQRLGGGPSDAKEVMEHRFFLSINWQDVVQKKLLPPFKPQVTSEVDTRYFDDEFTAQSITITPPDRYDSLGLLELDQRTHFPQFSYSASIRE

[19] = molecular target: Receptor-interacting serine/threonine-protein kinase 4 (Homo sapiens) (UniProt P57078)
[20] = molecular target: Delta-type opioid receptor (Homo sapiens) (UniProt P41143); settings: Compound concentration 10.0 uM
[21] = molecular target: Eukaryotic translation initiation factor 2-alpha kinase 1 (Homo sapiens) (UniProt Q9BQI3)
Eukaryotic translation initiation factor 2-alpha kinase 1 (Homo sapiens), sequence (Q9BQI3 whole entry): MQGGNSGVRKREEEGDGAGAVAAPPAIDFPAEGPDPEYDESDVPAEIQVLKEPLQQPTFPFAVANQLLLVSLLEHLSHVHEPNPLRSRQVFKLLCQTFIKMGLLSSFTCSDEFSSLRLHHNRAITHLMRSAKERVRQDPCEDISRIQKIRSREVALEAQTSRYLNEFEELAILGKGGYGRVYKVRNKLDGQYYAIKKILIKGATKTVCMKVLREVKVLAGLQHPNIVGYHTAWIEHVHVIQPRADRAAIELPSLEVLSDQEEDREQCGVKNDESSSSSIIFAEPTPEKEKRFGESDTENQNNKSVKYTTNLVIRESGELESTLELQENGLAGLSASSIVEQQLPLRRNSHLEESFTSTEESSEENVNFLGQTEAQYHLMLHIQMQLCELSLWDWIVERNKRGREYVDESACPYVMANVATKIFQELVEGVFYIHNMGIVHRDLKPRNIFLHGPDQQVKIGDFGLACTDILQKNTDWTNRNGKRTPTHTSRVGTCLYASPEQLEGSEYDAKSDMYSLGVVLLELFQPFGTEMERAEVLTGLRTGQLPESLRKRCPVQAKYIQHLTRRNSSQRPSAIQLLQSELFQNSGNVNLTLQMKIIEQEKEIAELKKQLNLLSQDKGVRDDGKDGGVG

[22] = molecular target: Serine/threonine-protein kinase WNK4 (Homo sapiens) (UniProt Q96J92)
[23] = molecular target: Fibroblast growth factor receptor 1 (Homo sapiens) (UniProt P11362)
[24] = molecular target: Beta-1 adrenergic receptor (Homo sapiens) (UniProt P08588); settings: Compound concentration 10.0 uM
[25] = molecular target: Calcium/calmodulin-dependent protein kinase type 1 (Homo sapiens) (UniProt Q14012)
[26] = molecular target: Dual specificity mitogen-activated protein kinase kinase 7 (Homo sapiens) (UniProt O14733)
[27] = molecular target: Phosphatidylinositol 4-phosphate 3-kinase C2 domain-containing subunit beta (Homo sapiens) (UniProt O00750)
[28] = molecular target: 1-phosphatidylinositol 3-phosphate 5-kinase (Homo sapiens) (UniProt Q9Y2I7)
[29] = molecular target: Serine/threonine-protein kinase 35 (Homo sapiens) (UniProt Q8TDR2)
[30] = molecular target: Ribosomal protein S6 kinase beta-1 (Homo sapiens) (UniProt P23443)
[31] = molecular target: Cyclin-dependent kinase 17 (Homo sapiens) (UniProt Q00537)
[32] = molecular target: Serine/threonine-protein kinase 32B (Homo sapiens) (UniProt Q9NY57)
[33] = molecular target: Cyclin-dependent kinase 4 (Homo sapiens) (UniProt P11802)
[34] = molecular target: Microtubule-associated serine/threonine-protein kinase 1 (Homo sapiens) (UniProt Q9Y2H9)
[35] = molecular target: Proto-oncogene tyrosine-protein kinase receptor Ret (Homo sapiens) (UniProt P07949)
[36] = molecular target: Phosphatidylinositol 5-phosphate 4-kinase type-2 beta (Homo sapiens) (UniProt P78356)
[37] = molecular target: Serine/threonine-protein kinase RIO3 (Homo sapiens) (UniProt O14730)
[38] = molecular target: Rhodopsin kinase GRK1 (Homo sapiens) (UniProt Q15835)
[39] = molecular target: Mitogen-activated protein kinase 13 (Homo sapiens) (UniProt O15264)
[40] = molecular target: Protein-tyrosine kinase 6 (Homo sapiens) (UniProt Q13882)
[41] = molecular target: Focal adhesion kinase 1 (Homo sapiens) (UniProt Q05397)
[42] = molecular target: Ribosomal protein S6 kinase alpha-4 (Homo sapiens) (UniProt O75676)
[43] = molecular target: SRSF protein kinase 1 (Homo sapiens) (UniProt Q96SB4)
[44] = molecular target: Serine/threonine-protein kinase D2 (Homo sapiens) (UniProt Q9BZL6)
[45] = molecular target: Mitogen-activated protein kinase kinase kinase 11 (Homo sapiens) (UniProt Q16584)
[46] = Compound concentration 1000.0 nM
[47] = Compound concentration 100.0 nM

## CN(C)c1ncnc(-c2ccc3nc(Nc4cc(CN5CCN(C(=O)CC(F)(F)F)CC5)ccn4)[nH]c3c2)c1Cl [BAY-440]
[1]; [46]
  residual activity: 100%
[2]; [46]
  residual activity: 53%
[3]; [46]
  residual activity: 90%
[4]; [46]
  residual activity: 100%
[5]; [46]
  residual activity: 85%
[6]; [46]
  residual activity: 66%
[7]; [46]
  residual activity: 100%
[8]; [46]
  residual activity: 100%
[9]; [46]
  residual activity: 97%
[10]; [46]
  residual activity: 100%
[11]; [46]
  residual activity: 91%
[12]; [46]
  residual activity: 87%
[13]; [46]
  residual activity: 1.8%
[14]; [46]
  residual activity: 37%
[15]; [46]
  residual activity: 100%
[16]; [46]
  residual activity: 100%
[17]; [46]
  residual activity: 80%
[18]; [46]
  residual activity: 95%
[19]; [46]
  residual activity: 100%
[20]
  inhibition: 2.06%
[21]; [46]
  residual activity: 54%
[22]; [46]
  residual activity: 53%
[23]; [46]
  residual activity: 100%
[24]
  inhibition: -6.2%
[25]; [46]
  residual activity: 100%
[26]; [46]
  residual activity: 100%
[27]; [46]
  residual activity: 100%
[28]; [46]
  residual activity: 81%
[29]; [46]
  residual activity: 83%
[30]; [46]
  residual activity: 92%
[31]; [46]
  residual activity: 100%
[32]; [46]
  residual activity: 100%
[33]; [46]
  residual activity: 69%
[34]; [46]
  residual activity: 86%
[35]; [46]
  residual activity: 77%
[36]; [46]
  residual activity: 52%
[37]; [46]
  residual activity: 92%
[38]; [46]
  residual activity: 90%
[39]; [46]
  residual activity: 100%
[40]; [46]
  residual activity: 86%
[41]; [46]
  residual activity: 100%
[42]; [46]
  residual activity: 80%
[43]; [46]
  residual activity: 47%
[44]; [46]
  residual activity: 84%
[45]; [46]
  residual activity: 100%

## C[C@H](c1ccnc(Nc2nc3ccc(-c4cc(N(C)C)ncn4)cc3[nH]2)c1)N1CCN(C(=O)CC(F)(F)F)CC1 [BAY-985]
[1]; [47]
  residual activity: 100%
[2]; [47]
  residual activity: 83%
[3]; [47]
  residual activity: 100%
[4]; [47]
  residual activity: 82%
[5]; [47]
  residual activity: 95%
[6]; [47]
  residual activity: 100%
[7]; [47]
  residual activity: 100%
[8]; [47]
  residual activity: 100%
[9]; [47]
  residual activity: 98%
[10]; [47]
  residual activity: 69%
[11]; [47]
  residual activity: 100%
[12]; [47]
  residual activity: 100%
[13]; [47]
  residual activity: 8.5%
[14]; [47]
  residual activity: 86%
[15]; [47]
  residual activity: 98%
[16]; [47]
  residual activity: 99%
[17]; [47]
  residual activity: 100%
[18]; [47]
  residual activity: 100%
[19]; [47]
  residual activity: 100%
[20]
  inhibition: 29%
[21]; [47]
  residual activity: 100%
[22]; [47]
  residual activity: 80%
[23]; [47]
  residual activity: 100%
[24]
  inhibition: 24.3%
[25]; [47]
  residual activity: 88%
[26]; [47]
  residual activity: 92%
[27]; [47]
  residual activity: 97%
[28]; [47]
  residual activity: 100%
[29]; [47]
  residual activity: 100%
[30]; [47]
  residual activity: 100%
[31]; [47]
  residual activity: 100%
[32]; [47]
  residual activity: 100%
[33]; [47]
  residual activity: 100%
[34]; [47]
  residual activity: 100%
[35]; [47]
  residual activity: 100%
[36]; [47]
  residual activity: 75%
[37]; [47]
  residual activity: 97%
[38]; [47]
  residual activity: 90%
[39]; [47]
  residual activity: 80%
[40]; [47]
  residual activity: 85%
[41]; [47]
  residual activity: 100%
[42]; [47]
  residual activity: 100%
[43]; [47]
  residual activity: 85%
[44]; [47]
  residual activity: 100%
[45]; [47]
  residual activity: 92%

Reference: ChEMBL document CHEMBL4507318, “Data for DCP probe BAY-985” (2021)
